Experimental data published in patent EP3724209B1, “ELASTOMERIC PEPTIDE” (Politecnico di Milano, priority 2017, dated 2019).
Where a SMILES comes first, the peptide text is derived from it. Where no end group is shown, it is not given here. [ ]: non-standard residue; d: D form. Tyr(3,5-Br2) = N[C@@H](Cc1cc(Br)c(O)c(Br)c1)C(=O)O

Tests used:
[1] = system: HeLa (Human cervical cancer cells); assay: CellTiter-Glo Luminescent Cell Viability Assay; type: cell-based; settings: 24 hours incubation
Procedure: HeLa (Human cervical cancer cells) were grown in DMEM supplemented with 1 mM sodium pyruvate, 10 mM HEPES buffer, 100 U/mL penicillin, 0.1 mg/mL streptomycin, 2 mM glutamine and 10% FBS (hereafter referred to as complete medium), at 37°C in a 5% CO2 humidified atmosphere. Cells were splitted the day before seeding and used within eight passages. The cells were seeded at a density of 7000 cell/cm^2. For evaluating cell viability, the day after the seeding the cell medium was replaced with medium containing the wild type or the halogenated oligopeptides and cells were incubated for 24 hours.

[2] = system: Pseudokirchneriella sub capitata
Procedure: An ecotoxicity test on Pseudokirchneriella sub capitata was performed to evaluate I% (inhibition percentage effect) and IC50 (concentration which determines the 50% inhibition of growth on the population) of the halogenated peptide SDS-Y(3,5 Br)-GAP.
The halogenated peptide SDS-Y(3,5 Br)-GAP was dissolved in water at 100 mg/l and tested at the following concentrations: 50 mg/l, 25 mg/l, 12.5 mg/l and 6.25 mg/l. Each sample was tested in triplicate.
After 72 hours of incubation with the sample or controls, a spectrophotometric test was performed at 670nm as a measure of cell density.

solubility test = type: physicochemical; settings: for aspect of solution after cooling: 100 mM solution; for aspect of solution after heating: 100 mM solutions (5 mg in 50 µl); for solubility: buffers at pH 3, 7, and 12 (10 mM) and pure water
Procedure: The isoelectric point (calculated on http://web.expasy.org/compute-pi/) of SDSYGAP (SEQ ID no. 6), comparative, and an oligopeptide according to the present invention, i.e., SDS-Y(3,5 Br)-GAP is 3.8. Three buffers at pH 3, 7, and 12 (10 mM concentration) and pure water were used as solvent for the two oligopeptides.

[3] = Dynamic Light Scattering aging study (autocorrelation lag time); type: physicochemical; settings: 10 mM in water
Procedure: Dynamic Light Scattering measurements were performed on an ALV/CGS-3 Platform-based Goniometer System equipped with an ALV-7004 correlator and an ALV/CGS-3 goniometer. The signal was detected by an ALV-Static and Dynamic Enhancer detection unit. The light source was the second harmonic of a diode-pumped Coherent Innova Nd:YAG laser (λ = 532 nm), linearly polarized in the vertical direction. Measurements were performed at 25°C. Approximately 1 ml of sample solution was transferred into the cylindrical Hellma scattering cell.
The dynamic information on structures present in the peptide solutions were derived from the normalized autocorrelation function g2 (q, τ) of the scattered intensity, which is measured according to g2 (q, τ) = (〈I(q, t)I(q,t+τ)〉)/((〈I(q, t)〉)^2) [formula] where q is the scattering vector, τ is the relaxation time and I is the scattered intensity. Higher relaxation times correspond to larger self-assembled structures. […] Results are reported in Figure 7, as graphs showing the autocorrelation functions of wild type (panel A) or halogenated (panel B) oligopeptide 10 mM in water at 90°C. The autocorrelation functions at 90°C show increasing Lag Time, i.e., increasing dimensions of the self-assembled structures, over time. Table 1 summarizes and compares the results, showing that halogenated oligopeptide form bigger structures compared to the wild type one. This is a further indication that bromine atoms play a role in the aggregation behavior of the peptide sequence. The same aging study was performed in buffer at pH 7, with similar results (data not shown).

Lag time ([3]; aging time t=0) [ms] | Lag time ([3]; aging time t=1 week) [ms] | Lag time ([3]; aging time t=24 h) [ms] | Lag time ([3]; aging time t=48 h) [ms] | Compound | cell viability [1] | ecotoxicity [2] | IC50 (concentration which determines the 50% inhibition of growth on the population) ([2]; 72 hours of incubation) [µg/mL] | aspect of solution after cooling (solubility test) | aspect of solution after heating (solubility test) | solubility (solubility test)
 |  |  |  | C[C@H](NC(=O)CNC(=O)[C@H](Cc1cc(Br)c(O)c(Br)c1)NC(=O)[C@H](CO)NC(=O)[C@H](CC(=O)O)NC(=O)[C@@H](N)CO)C(=O)N1CCC[C@H]1C(=O)O [SDS-Y(3,5 Br)-GAP] (H-SDS[Tyr(3,5-Br2)]GAP-OH) | not toxic even at high concentrations | not ecotoxic | 54 | milky | completely clear | good solubility properties in all the tested conditions
1.512 | 3.826 | 2.859 | 1.919 | SDSYGAP [SDSYGAP] | not toxic even at high concentrations |  |  | still clear | completely clear | good solubility properties in all the tested conditions
